Source: PMC3904261 (British Journal of Pharmacology, 2013)
Bridge positions count the residues as written; N and C are the ends. Ends that are not written are not given here.

B1: [Cys^3]-CGRP (peptide)
chain: ACCTATCVTHRLAGLLSRSGGVVKNNFVPTNVGSKAF-NH2
modifications: disulfide 2-7; N-terminus assumed
SMILES: CC(C)C[C@H](NC(=O)CNC(=O)[C@H](C)NC(=O)[C@H](CC(C)C)NC(=O)[C@H](CCCNC(=N)N)NC(=O)[C@H](Cc1c[nH]cn1)NC(=O)[C@@H](NC(=O)[C@@H](NC(=O)[C@@H]1CSSC[C@H](NC(=O)[C@H](C)N)C(=O)N[C@@H](CS)C(=O)N[C@@H]([C@@H](C)O)C(=O)N[C@@H](C)C(=O)N[C@@H]([C@@H](C)O)C(=O)N1)C(C)C)[C@@H](C)O)C(=O)N[C@@H](CC(C)C)C(=O)N[C@@H](CO)C(=O)N[C@@H](CCCNC(=N)N)C(=O)N[C@@H](CO)C(=O)NCC(=O)NCC(=O)N[C@H](C(=O)N[C@H](C(=O)N[C@@H](CCCCN)C(=O)N[C@@H](CC(N)=O)C(=O)N[C@@H](CC(N)=O)C(=O)N[C@@H](Cc1ccccc1)C(=O)N[C@H](C(=O)N1CCC[C@H]1C(=O)N[C@H](C(=O)N[C@@H](CC(N)=O)C(=O)N[C@H](C(=O)NCC(=O)N[C@@H](CO)C(=O)N[C@@H](CCCCN)C(=O)N[C@@H](C)C(=O)N[C@@H](Cc1ccccc1)C(N)=O)C(C)C)[C@@H](C)O)C(C)C)C(C)C)C(C)C

What was measured:
AMY1(a) receptor = target: T1, AMY1(a) receptor (Homo sapiens, UniProt O60894+P30988); assay: cAMP production in Cos 7 cells via the AMY1(a) receptor; format: cell-based; conditions: AlphaScreen, means ± SEM, n = 3–6
T1 construct: HA; expressed in transfected cells; host or cells: Cos 7
T1 sequence (P30988 25-474): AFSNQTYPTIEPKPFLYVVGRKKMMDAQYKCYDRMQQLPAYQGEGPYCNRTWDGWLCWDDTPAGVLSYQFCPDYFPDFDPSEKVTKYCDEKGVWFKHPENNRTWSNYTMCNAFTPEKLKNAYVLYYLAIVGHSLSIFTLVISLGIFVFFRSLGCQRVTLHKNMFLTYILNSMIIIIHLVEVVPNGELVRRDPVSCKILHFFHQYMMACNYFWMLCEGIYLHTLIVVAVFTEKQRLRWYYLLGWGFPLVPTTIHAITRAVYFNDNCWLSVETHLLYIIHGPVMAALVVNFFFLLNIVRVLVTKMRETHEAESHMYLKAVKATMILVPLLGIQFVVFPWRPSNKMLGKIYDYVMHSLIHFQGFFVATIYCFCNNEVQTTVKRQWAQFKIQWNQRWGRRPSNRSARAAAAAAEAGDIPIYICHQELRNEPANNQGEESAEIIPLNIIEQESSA
T1 sequence (O60894 27-148): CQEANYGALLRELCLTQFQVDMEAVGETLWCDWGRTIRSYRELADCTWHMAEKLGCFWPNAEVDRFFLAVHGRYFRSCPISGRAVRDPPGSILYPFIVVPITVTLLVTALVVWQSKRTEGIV
Method: SK-N-MC cells were grown in DMEM/F12 medium supplemented with 10% fetal calf serum as described previously (Poyner et al., [1998]). […] Production of cAMP in SK-N-MC cells for all analogues except [[…]]-hαCGRP was by a radioreceptor assay, as described previously (Poyner et al., [1998]). […] For [[…]]-hαCGRP, a different clone of SK-N-MC cells was used and cAMP production was measured via AlphaScreen (Perkin Elmer, Wellesley, MA, USA), as described previously ([…] et al., [2010]). This assay was also used to investigate the action of all derivatives at the AMY1(a) receptor and other experiments using Cos 7 cells. […] GraphPad Prism 5.00 or 6.00 (GraphPad Software Inc., San Diego, CA, USA) was used for data fitting. Concentration-response curves were fitted to a sigmoidal function with Hill slope constrained to unity to obtain pEC50 and maximum responses (Emax) values. Displacement curves were analysed to obtain pIC50 values. Schild plots were fitted by linear regression to obtain slope and intercepts. pEC50 and pIC50 values were compared with that of human αCGRP using Dunnett's test with either a normal or repeated measures one-way ANOVA, as appropriate.

CGRP receptor [1] = target: T2, CGRP receptor (Homo sapiens, UniProt O60894+Q16602); assay: cAMP production in SK-N-MC cells; format: cell-based; set-up: relative expression levels of the receptors (endogenous vs. overexpressed); endogenous in cells; host or cells: SK-N-MC cells (ECACC clone; ATCC clone for [Cys5]-CGRP); conditions: radioreceptor assay, approx. 10 min, means ± SEM, n = 3–6
T2 sequence (Q16602 23-461): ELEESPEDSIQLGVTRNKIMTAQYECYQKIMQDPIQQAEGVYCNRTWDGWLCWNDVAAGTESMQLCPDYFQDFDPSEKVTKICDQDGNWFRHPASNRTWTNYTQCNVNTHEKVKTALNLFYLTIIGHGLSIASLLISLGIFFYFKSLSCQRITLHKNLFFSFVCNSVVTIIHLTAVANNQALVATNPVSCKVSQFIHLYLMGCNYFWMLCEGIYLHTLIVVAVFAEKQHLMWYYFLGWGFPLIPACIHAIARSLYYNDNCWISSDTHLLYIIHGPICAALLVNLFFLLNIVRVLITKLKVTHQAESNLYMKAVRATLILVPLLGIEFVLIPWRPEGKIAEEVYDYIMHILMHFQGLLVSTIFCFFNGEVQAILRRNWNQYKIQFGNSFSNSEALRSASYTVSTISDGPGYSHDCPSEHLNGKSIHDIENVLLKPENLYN
T2 sequence (O60894 27-148): as the sequence (O60894 27-148) above
Method: Production of cAMP in SK-N-MC cells for all analogues except [[…]]-hαCGRP was by a radioreceptor assay, as described previously (Poyner et al., [1998]). […] For [[…]]-hαCGRP, a different clone of SK-N-MC cells was used and cAMP production was measured via AlphaScreen (Perkin Elmer, Wellesley, MA, USA), as described previously ([…] et al., [2010]). This assay was also used to investigate the action of all derivatives at the AMY1(a) receptor and other experiments using Cos 7 cells. […] GraphPad Prism 5.00 or 6.00 (GraphPad Software Inc., San Diego, CA, USA) was used for data fitting. Concentration-response curves were fitted to a sigmoidal function with Hill slope constrained to unity to obtain pEC50 and maximum responses (Emax) values. Displacement curves were analysed to obtain pIC50 values. Schild plots were fitted by linear regression to obtain slope and intercepts. pEC50 and pIC50 values were compared with that of human αCGRP using Dunnett's test with either a normal or repeated measures one-way ANOVA, as appropriate.

CGRP receptor [2] = target: T2, CGRP receptor; assay: β-arrestin 2 translocation in CHO-K1 cells (PathHunter eXpress); format: cell-based; set-up: host or cells: CHO-K1 (PathHunter eXpress β-arrestin kit)
Method: (§1) GraphPad Prism 5.00 or 6.00 (GraphPad Software Inc., San Diego, CA, USA) was used for data fitting. Concentration–response curves were fitted to a sigmoidal function with Hill slope constrained to unity to obtain pEC50 and maximum responses (Emax) values. Displacement curves were analysed to obtain pIC50 values. Schild plots were fitted by linear regression to obtain slope and intercepts. pEC50 and pIC50 values were compared with that of human αCGRP using Dunnett's test with either a normal or repeated measures one-way ANOVA, as appropriate.

CGRP receptor [3] = target: T2, CGRP receptor; assay: Displacement of 125I-CGRP binding to SK-N-MC cell membranes; set-up: relative expression levels of the receptors (endogenous vs. overexpressed); endogenous in cells; host or cells: SK-N-MC cells (ECACC clone; ATCC clone for [Cys5]-CGRP); conditions: Binding (SK-N-MC) pKi CGRP analogue, 125I-CGRP displacement, SK-N-MC cell membranes; means ± SEM, n = 3–6; [Cys5] on a different batch of SK-N-MC cells
Method: as §1

[4] = target: T3, CGRP receptor (calcitonin receptor-like receptor in complex with receptor activity-modifying protein 1) (human (endogenous in SK-N-MC), UniProt Q16602 23-461; O60894 27-148); assay: radioligand binding; displacement of ^125I-CGRP from SK-N-MC cell membranes by unlabelled peptides, microcentrifugation-based binding assay; [Cys^5]-CGRP and its control on another batch of SK-N-MC cells; conditions: one partner purified
T3 sequence (Q16602 23-461, chain 1 of 2): as the sequence (Q16602 23-461) above
T3 sequence (O60894 27-148, chain 2 of 2): as the sequence (O60894 27-148) above

[5] = target: AMY_(1(a)) receptor (human HA-tagged CT (a) receptor with human myc-tagged RAMP1) (human) (UniProt O60894)
AMY_(1(a)) receptor (human HA-tagged CT (a) receptor with human myc-tagged RAMP1) (human), sequence (O60894 whole entry, looked up): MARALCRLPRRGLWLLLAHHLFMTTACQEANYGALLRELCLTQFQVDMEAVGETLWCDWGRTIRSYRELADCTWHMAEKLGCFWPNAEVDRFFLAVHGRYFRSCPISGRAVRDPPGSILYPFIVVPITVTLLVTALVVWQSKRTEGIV

[6] = target: T3, CGRP receptor (calcitonin receptor-like …); assay: cell-based or functional assay
[7] = 2 h stimulation, means ± SEM, n = 3

Row | AMY1(a) receptor-stimulated cAMP pEC50 CGRP analogue (AMY1(a) receptor) | cAMP (SK-N-MC) pEC50 CGRP analogue (CGRP receptor [1]) | β-Arrestin (CHO-K1) pEC50 CGRP analogue (CGRP receptor [2]; [7]) | Ki (CGRP receptor [3]) [nM] | pKi [4] | Emax (% CGRP), cAMP production in Cos 7 cells with the AMY (1(a)) receptor [5] [% CGRP] | pEC50, cAMP production in Cos 7 cells with the AMY (1(a)) receptor [5] | Emax (% CGRP), cAMP production in SK-N-MC cells [6] [% CGRP] | Emax (% CGRP), β-arrestin 2 translocation in CHO-K1 cells expressing the human CGRP receptor [6] [% CGRP] | pEC50, cAMP production in SK-N-MC cells [6] | pEC50, β-arrestin 2 translocation in CHO-K1 cells expressing the human CGRP receptor [6] | other results | Molecule
1 | Undetectable | Undetectable | Undetectable | 17.4 |  |  |  |  |  |  |  |  | CC(C)C[C@H](NC(=O)CNC(=O)[C@H](C)NC(=O)[C@H](CC(C)C)NC(=O)[C@H](CCCNC(=N)N)NC(=O)[C@H](Cc1c[nH]cn1)NC(=O)[C@@H](NC(=O)[C@@H](NC(=O)[C@@H]1CSSC[C@H](NC(=O)[C@H](C)N)C(=O)N[C@@H](CC(=O)O)C(=O)N[C@@H]([C@@H](C)O)C(=O)N[C@@H](C)C(=O)N[C@@H](CCCCN)C(=O)N1)C(C)C)[C@@H](C)O)C(=O)N[C@@H](CC(C)C)C(=O)N[C@@H](CO)C(=O)N[C@@H](CCCNC(=N)N)C(=O)N[C@@H](CO)C(=O)NCC(=O)NCC(=O)N[C@H](C(=O)N[C@H](C(=O)N[C@@H](CCCCN)C(=O)N[C@@H](CC(N)=O)C(=O)N[C@@H](CC(N)=O)C(=O)N[C@@H](Cc1ccccc1)C(=O)N[C@H](C(=O)N1CCC[C@H]1C(=O)N[C@H](C(=O)N[C@@H](CC(N)=O)C(=O)N[C@H](C(=O)NCC(=O)N[C@@H](CO)C(=O)N[C@@H](CCCCN)C(=O)N[C@@H](C)C(=O)N[C@@H](Cc1ccccc1)C(N)=O)C(C)C)[C@@H](C)O)C(C)C)C(C)C)C(C)C [[Lys^6]]
2 | Undetectable | Undetectable | Undetectable | 31.6 |  |  |  |  |  |  |  |  | CC(C)C[C@H](NC(=O)CNC(=O)[C@H](C)NC(=O)[C@H](CC(C)C)NC(=O)[C@H](CCCNC(=N)N)NC(=O)[C@H](Cc1c[nH]cn1)NC(=O)[C@@H](NC(=O)[C@@H](NC(=O)[C@@H]1CSSC[C@H](NC(=O)[C@H](C)N)C(=O)N[C@@H](CC(=O)O)C(=O)N[C@@H]([C@@H](C)O)C(=O)N[C@@H](C)C(=O)N[C@@H](CC(=O)O)C(=O)N1)C(C)C)[C@@H](C)O)C(=O)N[C@@H](CC(C)C)C(=O)N[C@@H](CO)C(=O)N[C@@H](CCCNC(=N)N)C(=O)N[C@@H](CO)C(=O)NCC(=O)NCC(=O)N[C@H](C(=O)N[C@H](C(=O)N[C@@H](CCCCN)C(=O)N[C@@H](CC(N)=O)C(=O)N[C@@H](CC(N)=O)C(=O)N[C@@H](Cc1ccccc1)C(=O)N[C@H](C(=O)N1CCC[C@H]1C(=O)N[C@H](C(=O)N[C@@H](CC(N)=O)C(=O)N[C@H](C(=O)NCC(=O)N[C@@H](CO)C(=O)N[C@@H](CCCCN)C(=O)N[C@@H](C)C(=O)N[C@@H](Cc1ccccc1)C(N)=O)C(C)C)[C@@H](C)O)C(C)C)C(C)C)C(C)C [[Asp^6]]
3 |  |  |  | 0.759 |  |  |  |  |  |  |  | EC50 (AMY1(a) receptor; AMY1(a) receptor-stimulated cAMP pEC50 CGRP analogue): 0.562 nM; AMY1(a) receptor-stimulated cAMP Emax (% CGRP) CGRP analogue (AMY1(a) receptor): 76 ± 19 % CGRP; EC50 (CGRP receptor [1]; cAMP (SK-N-MC) pEC50 CGRP analogue): 53.7 nM; cAMP (SK-N-MC) Emax (% CGRP) CGRP analogue (CGRP receptor [1]): 100 ± 10 % CGRP; β-Arrestin (CHO-K1) Emax (% CGRP) CGRP analogue (CGRP receptor [2]; [7]): 57.3 ± 4.8 % CGRP; Emax (CGRP receptor [2]; CHO-K1, CHO-K1 cells, compared with CGRP, read-out: reduction of Emax, β-arrestin 2 translocation): 40%; EC50 (CGRP receptor [2]; β-Arrestin (CHO-K1) pEC50 CGRP analogue, 2 h stimulation, means ± SEM, n = 3): 8.51 nM | CC(C)C[C@H](NC(=O)CNC(=O)[C@H](C)NC(=O)[C@H](CC(C)C)NC(=O)[C@H](CCCNC(=N)N)NC(=O)[C@H](Cc1c[nH]cn1)NC(=O)[C@@H](NC(=O)[C@@H](NC(=O)[C@@H]1CSSC[C@H](NC(=O)[C@H](C)N)C(=O)N[C@@H](CC(=O)O)C(=O)N[C@@H]([C@@H](C)O)C(=O)N[C@@H](C)C(=O)N[C@@H](CO)C(=O)N1)C(C)C)[C@@H](C)O)C(=O)N[C@@H](CC(C)C)C(=O)N[C@@H](CO)C(=O)N[C@@H](CCCNC(=N)N)C(=O)N[C@@H](CO)C(=O)NCC(=O)NCC(=O)N[C@H](C(=O)N[C@H](C(=O)N[C@@H](CCCCN)C(=O)N[C@@H](CC(N)=O)C(=O)N[C@@H](CC(N)=O)C(=O)N[C@@H](Cc1ccccc1)C(=O)N[C@H](C(=O)N1CCC[C@H]1C(=O)N[C@H](C(=O)N[C@@H](CC(N)=O)C(=O)N[C@H](C(=O)NCC(=O)N[C@@H](CO)C(=O)N[C@@H](CCCCN)C(=O)N[C@@H](C)C(=O)N[C@@H](Cc1ccccc1)C(N)=O)C(C)C)[C@@H](C)O)C(C)C)C(C)C)C(C)C [[Ser^6]]
4 |  |  |  |  | 9.12 | 76 | 9.25 | 100 | 57.3 | 7.27 | 8.07 |  | ACDTASCVTHRLAGLLSRSGGVVKNNFVPTNVGSKAF-NH2 (disulfide 2-7) [[Ser^6]-CGRP]
5 |  |  |  |  | 9.54 | 108 | 8.9 | 116 | 95 | 8.27 | 8.43 |  | B1
